{
  "source": "patent US10774122B2",
  "about": "“ERG targeted therapy” (The Regents of the University of Michigan, priority 2017, dated 2020)",
  "key": {"[1]": {"tested_on": "VCaP cells", "type": "cell-based", "description": "The samples were treated with SDS loading buffer supplied with 10 mM DTT for 5 min at 85° C. The proteins were alkylated by adding iodoacetamide to the final concentration of 15 mM. The samples were subjected to SDS-PAGE and the whole lanes were cut out and digested with trypsin in-gel for 2 hours. The resulting peptides were extracted, dried and resuspended in 0.1% formic acid with 5% acetonitrile prior to loading onto a trap EASY-column (Thermo Scientific) coupled to an in-house made nano HPLC column (20 cm×75 um) packed with LUNA C18 media. Analysis was performed on Velos Pro mass spectrometer (Thermo Scientific) operated in data-dependent mode using 90-min gradients in EASY-LC system (Proxeon) with 95% water, 5% acetonitrile (ACN), 0.1% formic acid (FA) (solvent A), and 95% ACN, 5% water, 0.1% FA (solvent B) at a flow rate of 220 nl/min. […]\nThe resulting spectrum files were transformed into MGF format by MSConvert software and interrogated by MASCOT 2.4 search engine using human UniProt database version 15 concatenated with reverse sequences for estimation of false discovery rate (FDR) and with a list of common contaminants. […] The peptide FDR was calculated as 2×(decoy_hits)/(target+decoy hits). Spectral counts for all detected proteins were assembled using an in-house written Python script. […]"}, "[2]": {"tested_on": "VCaP cells", "design": "species or system chicken embryo", "details": "in vivo, 25 mg/kg", "description": "The CAM assays were performed as described previously (Brenner et al., 2011; supra). Briefly, fertilized eggs were incubated in a rotary humidified incubator at 38° C. for 10 days. First the CAM was released by applying mild pressure to the hole over the air sac and cutting a square 1 cm^2 window encompassing a second hole near the allantoic vein. Then cultured VCaP cells that stably express Cherry Red and pre-treated with peptidomimetics as indicated were detached by trypsinization and re-suspended in complete medium and 2×10^6 cells were implanted adjacent to the mesenchyme in each egg. The windows were subsequently sealed and the eggs were returned to a stationary incubator. For invasion and intravasation experiments, implanted eggs were treated with 25 mg/kg body weight of the peptidomimetics 6 hrs after inoculation and both the upper and lower CAM were isolated after 72 hr. Invasive cells were processed and stained for chicken collagen IV as previously described (Brenner et al., 2011; supra). […] The embryonic lungs were harvested and analyzed for the presence of tumor cells by quantitative human alu-specific PCR. […] Quantification of human cells in the extracted DNA was carried out as described (van der Horst et al., Biotechniques 37, 940-942, 944, 946 2004). Fluorogenic TaqMan qPCR probes were used as described above, and DNA copy numbers were quantified."}, "[3]": {"tested_on": "ERG targets such as TDRD1, ARHGDIB, NDRG1 and CACNA1D", "design": "species or system mice", "details": "mouse, in vivo", "description": "Total RNA was isolated from VCaP cells and tumors using Qiazol following the manufacturer's protocol (Qiagen). Quantitative PCR (QPCR) was performed using SYBR Green dye on an Applied Biosystems 7300 Real Time PCR system (Applied Biosystems) as described (Tomlins et al., 2005). Briefly, 2 μg of total RNA was reverse transcribed into cDNA using SuperScript III (Invitrogen) in the presence of random primers (Invitrogen). All reactions were performed in triplicate with SYBR Green Master Mix (Applied Biosystems) and 25 ng of forward and reverse primer according to the manufacturer's recommended thermocycling conditions, and then subjected to melt curve analysis. Threshold levels for each experiment were set during the exponential phase of the QPCR reaction using Sequence Detection Software version 1.2.2 (Applied Biosystems). The relative quantity of the target gene was calculated for each sample using the ΔΔCt method by the comparing mean Ct of the gene to the average Ct of the housekeeping gene, […] (Livak and Schmittgen, 2001). All oligonucleotide primers were synthesized by Integrated DNA Technologies (Coralville, Iowa). The primer sequences for the transcript analyzed were previously described (Brenner et al., 2011; supra)."}, "[4]": {"tested_on": "CD31^+ vessels", "design": "species or system mice", "details": "mouse, in vivo", "description": "(M) The quantitative data of IHC staining."}, "[5]": {"molecular_target": "ERG protein (Homo sapiens, UniProt P11308)", "details": "mouse, in vivo", "method": "VCaP cells were seeded in 6-well plates at 0.5×10^6 cells/ml and after allowing cells to attach, cells were harvested and homogenized in NP40 lysis buffer (Sigma) containing a complete protease inhibitor cocktail (Roche). Ten micrograms of each protein extract was boiled in SDS sample buffer, size fractionated by SDS-PAGE, and transferred onto a PVDF membrane (GE Healthcare). […] Following three washes in TBS-T, the blots were incubated with horseradish peroxidase conjugated secondary antibody and the signals visualized by enhanced chemiluminescence system according to manufacturer's instructions (GE Healthcare).\nCell pellets or tumors treated with or without the peptidomimetics were lysed in cell lysis buffer (20 mM MOPS, pH 7.0, 2 mM EGTA, 5 mM EDTA, 30 mM sodium fluoride, 60 mM β-glycerophosphate, 20 mM sodium pyrophosphate, 1 mM sodium orthovanadate, 1% Triton X-100, 1 mM DTT, protease inhibitor cocktail (Roche)). Cell lysates (0.5-1.0 mg) were pre-cleaned with protein A/G agarose beads (Santa Cruz) by incubation for 1 hour with shaking at 4° C. followed by centrifugation at 2000 rpm for 3 minute. Lysates were then incubated with 2 μg ERG antibody (Santa Cruz, C-17) at 4° C. for 4 hours with shaking prior to addition of 20 μl protein A/G agarose beads and incubated at 4° C. overnight. […] Samples were then analyzed by SDS-PAGE and Western blot analysis as described above."}, "[6]": {"tested_on": "VCaP (ERG fusion-positive) xenografts", "test": "VCaP xenograft mouse model, tumor growth", "method": "Athymic Nude-Foxnlnu male mice were procured from Harlan Laboratories, Inc (Indianapolis, Ind.). All procedures involving mice were approved by the University Committee on Use and Care of Animals (UCUCA) at the University of Michigan and conformed to their relevant regulatory standards. […] Statistical significance for Kaplan-Meier analysis was determined by the log-rank (Mantel-Cox) test.\nAthymic Nude-Foxnlnu male mice were procured from Harlan Laboratories, Inc. (Indianapolis, Ind.). VCaP (2×10^6 cells) or PC3 (5×10^5 cells) were resuspended in 100 μl of saline with 50% Matrigel (BD Biosciences, Becton Drive, NJ) and implanted subcutaneously into the flank regions on both sides of the mice. Mice were anesthetized using a cocktail of xylazine (80-120 mg/kg, IP) and ketamine (10 mg/kg, IP) for chemical restraint before tumor cells implantation. For short term assays, all tumors were staged for three weeks before starting peptidomimetic treatment. After week 3 (VCaP cells) or 12 days (PC3 cells), mice (10 per treatment group) were treated with peptidomimetics (25 mg/kg or 10 mg/kg as indicated, IP) daily five times a week.\nTumor growth was recorded every three days using digital calipers and tumor volumes were calculated using the formula (π/6) (L×W2), where L=length of tumor and W=width. Body weight was monitored weekly over the course of the study. At the end of the xenograft studies, mice were anaesthetized and blood was collected by cardiac puncture and tumors were preserved for further biochemical and immunofluorescence analysis. […] Survival analysis was carried out using the GraphPad Prism 4.0 software (GraphPad Software, San Diego, Calif.). Statistical significance for Kaplan-Meier analysis was determined by the log-rank (Mantel-Cox) test. All procedures involving mice were approved by the University Committee on Use and Care of Animals (UCUCA) at the University of Michigan and conform to their relevant regulatory standards."}, "[7]": {"molecular_target": "T1, ERG (Homo sapiens, UniProt P11308)", "T1 sequence (P11308 1-479)": "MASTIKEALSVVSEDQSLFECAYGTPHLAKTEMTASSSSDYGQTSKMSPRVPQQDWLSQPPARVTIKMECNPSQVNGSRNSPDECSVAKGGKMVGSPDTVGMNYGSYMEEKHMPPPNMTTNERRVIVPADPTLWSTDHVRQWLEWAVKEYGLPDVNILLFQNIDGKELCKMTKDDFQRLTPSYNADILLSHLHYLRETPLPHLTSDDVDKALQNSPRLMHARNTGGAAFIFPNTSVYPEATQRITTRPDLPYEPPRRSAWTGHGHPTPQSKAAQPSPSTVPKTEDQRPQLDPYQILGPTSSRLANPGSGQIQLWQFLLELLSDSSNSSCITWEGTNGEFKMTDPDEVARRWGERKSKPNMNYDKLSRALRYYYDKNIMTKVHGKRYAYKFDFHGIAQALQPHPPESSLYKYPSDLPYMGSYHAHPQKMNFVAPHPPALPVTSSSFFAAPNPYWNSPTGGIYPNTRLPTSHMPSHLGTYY", "test": "ERG:peptide binding by biolayer interferometry (OctetRED)", "method": "The interaction coefficients between ERG and synthetic peptides or peptidomimetics were determined by biolayer interferometry technology using the Octet Red system (ForteBio). Purified ERG and GUS proteins were biotinylated by EZLink NHS-PEG4 Biotinylation Kit (Thermo Scientific) following the manufacturer's protocol and any unincorporated biotin was removed from the reactions with Zeba 2 ml desalt columns (Thermo). Biotinylated proteins (500 μg/ml) were then incubated with super streptavidin biosensors in binding buffer (20 mM HEPES pH 7.4, 150 mM NaCl), blocked with 10 μg/ml biocytin and washed three times in binding buffer. Peptides were serially diluted in binding buffer, mixed with the protein-coupled biosensors and peptidomimetic:protein association/dissociation was monitored for 10 min at 25° C. Nonspecific binding from the signal obtained from peptidomimetic:GUS interactions was subtracted from that of peptidomimetic:ERG interactions and baseline signal drift was controlled by monitoring immobilized ERG without peptide. Octet Red analysis software was used to analyze the data."}},
  "note": "Where a SMILES comes first, the peptide text is derived from it. [ ]: non-standard residue; d: D form.",
  "data": [
    {"smiles": "CC(C)C[C@@H](NC(=O)[C@H]1CCCN1C(=O)[C@H]1CCCN1C(=O)[C@@H](Cc1ccc(O)cc1)NC(=O)[C@@H](CC(C)C)NC(=O)[C@@H](Cc1ccccc1)NC(=O)[C@H](NC(=O)CNC(=O)CNC(=O)[C@@H](CCCNC(=N)N)NC(=O)[C@@H](CCCCN)NC(=O)[C@@H](CCCCN)NC(=O)[C@@H](CCCNC(=N)N)NC(=O)[C@@H](CCCNC(=N)N)NC(=O)[C@@H](CCC(N)=O)NC(=O)[C@@H](CCCNC(=N)N)NC(=O)[C@@H](CCCNC(=N)N)NC(=O)[C@@H](CCCNC(=N)N)NC(=O)CN)[C@H](C)O)C(=O)O", "note": "[RI-EIP1] (H-G[dR][dR][dR][dQ][dR][dR][dK][dK][dR]GG[dT][dF][dL][dY][dP][dP][dL]-OH)", "values": [
      {"measurement": "depletion of ERG among 3020 proteins identified", "setting": "[1]", "result": "most significantly depleted"},
      {"measurement": "ERG-mediated invasion and intravasation", "setting": "[2]", "result": "dramatically blocked"},
      {"measurement": "gene expression of ERG targets in VCaP tumors", "setting": "[3]", "result": "inhibited"},
      {"measurement": "angiogenesis by number of CD31^+ vessels in FFPE sections", "setting": "[4]", "result": "did not alter angiogenesis"},
      {"measurement": "ERG protein in VCaP xenograft tumors", "setting": "[5]", "result": "substantial degradation"},
      {"measurement": "recurrences after additional 30 days without therapy", "setting": "[6]; 25 mg/kg group", "result": "no recurrences were observed"},
      {"measurement": "tumors completely regressed with no palpable tumor", "setting": "[6]; 25 mg/kg, day 18", "result": 10, "unit": "%"},
      {"measurement": "tumors with no signs of recurrence", "setting": "[6]; 25 mg/kg, extended treatment, day 30", "result": 35, "unit": "%"},
      {"measurement": "tumor growth, additional VCaP xenograft studies", "setting": "[6]; 1, 5 and 25 mg/kg, effect at 25 mg/kg relative to control", "result": "significant suppression"},
      {"measurement": "VCaP tumor growth", "setting": "[6]; 10 or 25 mg/kg per day, day 18, relative to mutant peptide, p<0.01", "result": "dose-dependent reduction"},
      {"measurement": "Kd", "setting": "[7]", "result": 0.94, "unit": "µM"}
    ]}
  ]
}
